The values below are quoted from earlier work in patent US20200299317A1 (Tokuyama Corporation, priority 2018, published 2020).

The conditions of this data set: ferric citrate obtainable per Patent Literature 2.

Consider ferric citrate, for which the “BET specific surface area” value is on record as 20 to 45 m^2/g.
